Measurements published in patent publication US9260425B2 (Genetech, Inc., priority 2011, dated 2016).

Biological target: Pim-1 (Homo sapiens (Human), UniProt P11309)
Experiment: Pim kinase binding activity assay (Example 901), PIM-1 enzyme, Caliper microfluidic peptide phosphorylation
Format: biochemical
Details: 20 pM PIM-1, 10 μM ATP, 1 μM FAM-peptide, 90 minutes at room temperature
Procedure, shortened: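 PIM-1 at 20 pM phosphorylated 1 μM FAM-labelled Pim peptide with 10 μM ATP in HEPES pH 7.2, MgCl2, Tween 20 and DTT for 90 min at room temperature. EDTA stopped the reaction, and product and substrate were resolved by microfluidic electrophoresis (ex 488/em 530 nm). Ki was derived from substrate conversion.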

Sequence of Pim-1 (P11309 whole entry): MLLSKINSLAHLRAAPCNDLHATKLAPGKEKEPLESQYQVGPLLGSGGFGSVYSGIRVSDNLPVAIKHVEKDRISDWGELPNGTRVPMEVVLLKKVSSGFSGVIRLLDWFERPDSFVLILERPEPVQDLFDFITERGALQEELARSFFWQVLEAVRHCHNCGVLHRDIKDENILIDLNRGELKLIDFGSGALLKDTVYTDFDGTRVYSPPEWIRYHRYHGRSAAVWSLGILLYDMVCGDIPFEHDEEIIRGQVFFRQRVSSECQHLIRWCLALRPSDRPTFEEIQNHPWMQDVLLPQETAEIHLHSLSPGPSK

SMILES | Ki [nM]
Cn1cc(-c2cc3c(-c4cccc(N5CCC(CN)CC5)n4)n[nH]c3cn2)cn1 [Example 182, (1-(6-(5-(1-methyl-1H-pyrazol-4-yl)-1H-pyrazolo[3,4-c]pyridin-3-yl)pyridin-2-yl)piperidin-4-yl)methanamine] | 0.085
c1cncc(-c2cc3c(-c4cnn(C5CCNCC5)c4)n[nH]c3cn2)c1 [Example 175, 3-(1-(piperidin-4-yl)-1H-pyrazol-4-yl)-5-(pyridin-3-yl)-1H-pyrazolo[3,4-c]pyridine] | 0.3
NC1CCN(C(=O)c2cccc(-c3n[nH]c4cnc(-c5cccnc5)cc34)n2)CC1 [Example 336, (4-aminopiperidin-1-yl)(6-(5-(pyridin-3-yl)-1H-pyrazolo[3,4-c]pyridin-3-yl)pyridin-2-yl)methanone] | 12.7
Fc1ccccc1-c1n[nH]c2cnc(-c3cnccc3OC3CNC3)cc12 [Example 198, 5-(4-(azetidin-3-yloxy)pyridin-3-yl)-3-(2-fluorophenyl)-1H-pyrazolo[3,4-c]pyridine] | 3.12
[O-][n+]1cc(C(F)(F)F)ccc1-c1n[nH]c2cnc(-c3cccnc3)cc12 [Example 354] | 97.9
O=C1N(c2n[nH]c3cnc(-c4cccnc4)cc23)CCC12CCNCC2 [Example 295, 2-(5-(pyridin-3-yl)-1H-pyrazolo[3,4-c]pyridin-3-yl)-2,8-diazaspiro[4.5]decan-1-one] | 39.9
N[C@@H]1CCCN(c2nccc(-c3n[nH]c4cnc(-c5cccnc5)cc34)n2)C1 [Example 300, (R)-1-(4-(5-(pyridin-3-yl)-1H-pyrazolo[3,4-c]pyridin-3-yl)pyrimidin-2-yl)piperidin-3-amine] | 0.07
Cc1ccc(-c2n[nH]c3cnc(-c4cccnc4)cc23)nc1 [Example 275, 3-(5-methylpyridin-2-yl)-5-(pyridin-3-yl)-1H-pyrazolo[3,4-c]pyridine] | 6.92
N[C@@H]1CCCN(c2nc(-c3n[nH]c4cnc(-c5cccnc5)cc34)ccc2Br)CC1 [Example 313, (R)-1-(3-bromo-6-(5-(pyridin-3-yl)-1H-pyrazolo[3,4-c]pyridin-3-yl)pyridin-2-yl)azepan-4-amine] | 0.028
Cn1cc(-c2cc3c(-c4ccccc4)n[nH]c3cn2)cn1 [Example 133, 5-(1-methyl-1H-pyrazol-4-yl)-3-phenyl-1H-pyrazolo[3,4-c]pyridine] | 5.57
c1ccc(-c2n[nH]c3cnc(-n4cncn4)cc23)cc1 [Example 142, 3-phenyl-5-(1H-1,2,4-triazol-1-yl)-1H-pyrazolo[3,4-c]pyridine] | 306
N[C@H]1CCCN(c2nc(-c3n[nH]c4cnc(-c5cccnc5)cc34)ccc2Cl)C1 [Example 265, (S)-1-(3-chloro-6-(5-(pyridin-3-yl)-1H-pyrazolo[3,4-c]pyridin-3-yl)pyridin-2-yl)piperidin-3-amine] | 0.019
c1ccc(-c2cc3c(-c4ccccn4)n[nH]c3cn2)nc1 [Example 256, 3,5-di(pyridin-2-yl)-1H-pyrazolo[3,4-c]pyridine] | 1500
Cc1ccc(-c2cc3c(-c4cccc(N5CCNCC5)n4)n[nH]c3cn2)cn1 [Example 367] | 0.217
FCCn1cc(-c2cc3c(-c4cccc(N5CCCNCC5)n4)n[nH]c3cn2)cn1 [Example 489, 3-(6-(1,4-diazepan-1-yl)pyridin-2-yl)-5-(1-(2-fluoroethyl)-1H-pyrazol-4-yl)-1H-pyrazolo[3,4-c]pyridine] | 0.014
O[C@H]1CCN(c2nc(-c3n[nH]c4cnc(-c5cccnc5)cc34)ccc2Br)C1 [Example 318, (S)-1-(3-bromo-6-(5-(pyridin-3-yl)-1H-pyrazolo[3,4-c]pyridin-3-yl)pyridin-2-yl)pyrrolidin-3-ol] | 0.059
NCCCCNc1cccc(-c2n[nH]c3cnc(-c4cccnc4)cc23)n1 [Example 283, N1-(6-(5-(pyridin-3-yl)-1H-pyrazolo[3,4-c]pyridin-3-yl)pyridin-2-yl)butane-1,4-diamine] | 0.257
c1cncc(-c2cc3c(-c4cccnc4)n[nH]c3cn2)c1 [Example 176, 3,5-di(pyridin-3-yl)-1H-pyrazolo[3,4-c]pyridine] | 6.46
C[C@@H]1CN(c2cccc(-c3n[nH]c4cnc(-c5cnn(CCF)c5)cc34)n2)CCN1 [Example 521, (R)-5-(1-(2-fluoroethyl)-1H-pyrazol-4-yl)-3-(6-(3-methylpiperazin-1-yl)pyridin-2-yl)-1H-pyrazolo[3,4-c]pyridine] | 0.026
NC1CCCN(c2ccncc2-c2cc3c(-c4ccccc4F)n[nH]c3cn2)CC1 (stereo not shown) [Example 139, 1-(3-(3-(2-fluorophenyl)-1H-pyrazolo[3,4-c]pyridin-5-yl)pyridin-4-yl)azepan-4-amine] | 255
c1ccc(-c2n[nH]c3cnc(-n4ccnc4)cc23)cc1 [Example 146, 5-(1H-imidazol-1-yl)-3-phenyl-1H-pyrazolo[3,4-c]pyridine] | 26.7
N[C@H]1CCCN(Cc2n[nH]c3cnc(-c4cccnc4)cc23)C1 [Example 104, (S)-1-((5-(pyridin-3-yl)-1H-pyrazolo[3,4-c]pyridin-3-yl)methyl)piperidin-3-amine] | 3000
CCn1cc(-c2cc3c(-c4ccc(C)c(N5CCC[C@@H](N)C5)n4)n[nH]c3cn2)cn1 [Example 443, (R)-1-(6-(5-(1-ethyl-1H-pyrazol-4-yl)-1H-pyrazolo[3,4-c]pyridin-3-yl)-3-methylpyridin-2-yl)piperidin-3-amine] | 0.1
N[C@H]1CCC[C@@H](Nc2cccc(-c3n[nH]c4cnc(-c5cccnc5)cc34)n2)C1 [Example 340, (1R,3S)-N1-(6-(5-(pyridin-3-yl)-1H-pyrazolo[3,4-c]pyridin-3-yl)pyridin-2-yl)cyclohexane-1,3-diamine] | 0.044
c1cc(-c2n[nH]c3cnc(C4CCOC4)cc23)nc(N2CCNCC2)c1 (stereo not shown) [Example 212, 3-(6-(piperazin-1-yl)pyridin-2-yl)-5-(tetrahydrofuran-3-yl)-1H-pyrazolo[3,4-c]pyridine] | 8.48
CCn1cc(-c2cc3c(-c4cccc(N5CCNCC(CO)C5)n4)n[nH]c3cn2)cn1 (stereo not shown) [Example 511, (1-(6-(5-(1-ethyl-1H-pyrazol-4-yl)-1H-pyrazolo[3,4-c]pyridin-3-yl)pyridin-2-yl)-1,4-diazepan-6-yl)methanol] | 0.016

Further molecules by falling Ki, results first:

Ki [nM] | SMILES
219 | O=C1CNCCN1c1cc2c(-c3cccc(N4CCNCC4)n3)n[nH]c2cn1 [Example 346, 1-(3-(6-(piperazin-1-yl)pyridin-2-yl)-1H-pyrazolo[3,4-c]pyridin-5-yl)piperazin-2-one]
31.1 | CN1C(=O)CN(c2cc3c(-c4cccc(N5CCNCC5)n4)n[nH]c3cn2)C1=O [Example 371, 3-methyl-1-(3-(6-(piperazin-1-yl)pyridin-2-yl)-1H-pyrazolo[3,4-c]pyridin-5-yl)imidazolidine-2,4-dione]
23.2 | CCn1cc(-c2cc3c(-c4cc(C)ccn4)n[nH]c3cn2)cn1 [Example 492, 5-(1-ethyl-1H-pyrazol-4-yl)-3-(4-methylpyridin-2-yl)-1H-pyrazolo[3,4-c]pyridine]
15.9 | FC(F)(F)c1cccc(-c2n[nH]c3cnc(-c4cccnc4)cc23)c1 [Example 126, 5-(pyridin-3-yl)-3-(3-(trifluoromethyl)phenyl)-1H-pyrazolo[3,4-c]pyridine]
11.6 | c1ccc(-c2n[nH]c3cnc(-c4cccnc4)cc23)nc1 [Example 204, 3-(pyridin-2-yl)-5-(pyridin-3-yl)-1H-pyrazolo[3,4-c]pyridine]
0.774 | N[C@H]1CCCN(c2ccc(-c3n[nH]c4cnc(-c5cccnc5)cc34)cn2)C1 [Example 196, (S)-1-(5-(5-(pyridin-3-yl)-1H-pyrazolo[3,4-c]pyridin-3-yl)pyridin-2-yl)piperidin-3-amine]
0.265 | CCn1cc(-c2cc3c(-c4cccc(N5CCC[C@@](C)(O)C5)n4)n[nH]c3cn2)cn1 [Example 460, (R)-1-(6-(5-(1-ethyl-1H-pyrazol-4-yl)-1H-pyrazolo[3,4-c]pyridin-3-yl)pyridin-2-yl)-3-methylpiperidin-3-ol]
0.108 | FCCn1cc(-c2cc3c(-c4cccc(N5CCNCC5)n4)n[nH]c3cn2)cn1 [Example 391, 5-(1-(2-fluoroethyl)-1H-pyrazol-4-yl)-3-(6-(piperazin-1-yl)pyridin-2-yl)-1H-pyrazolo[3,4-c]pyridine]
0.103 | CCn1cc(-c2cc3c(-c4cccc(N5CCCC[C@H](O)C5)n4)n[nH]c3cn2)cn1 [Example 501, (S)-1-(6-(5-(1-ethyl-1H-pyrazol-4-yl)-1H-pyrazolo[3,4-c]pyridin-3-yl)pyridin-2-yl)azepan-3-ol]
0.093 | FC(F)(F)c1cncc(-c2cc3c(-c4cccc(N5CCNCC5)n4)n[nH]c3cn2)c1 [Example 467, 3-(6-(piperazin-1-yl)pyridin-2-yl)-5-(5-(trifluoromethyl)pyridin-3-yl)-1H-pyrazolo[3,4-c]pyridine]
0.084 | CCn1cc(-c2cc3c(-c4cccc(N5CCNC(CO)C5)n4)n[nH]c3cn2)cn1 (stereo not shown) [Example 463, (4-(6-(5-(1-ethyl-1H-pyrazol-4-yl)-1H-pyrazolo[3,4-c]pyridin-3-yl)pyridin-2-yl)piperazin-2-yl)methanol]
0.06 | N[C@@H]1CCCN(c2nc(-c3n[nH]c4cnc(-c5cccnc5)cc34)ccc2Cl)C1 [Example 266, (R)-1-(3-chloro-6-(5-(pyridin-3-yl)-1H-pyrazolo[3,4-c]pyridin-3-yl)pyridin-2-yl)piperidin-3-amine]
0.019 | Cc1cncc(-c2cc3c(-c4cccc(N5CCCNCC5)n4)n[nH]c3cn2)n1 [Example 522, 3-(6-(1,4-diazepan-1-yl)pyridin-2-yl)-5-(6-methylpyrazin-2-yl)-1H-pyrazolo[3,4-c]pyridine]
0.00806 | Cc1ccc(-c2n[nH]c3cnc(-c4cccnc4)cc23)nc1N1CCC[C@H](N)C1 [Example 315, (S)-1-(3-methyl-6-(5-(pyridin-3-yl)-1H-pyrazolo[3,4-c]pyridin-3-yl)pyridin-2-yl)piperidin-3-amine]
